According to patent US8815874B2, “Pyrazolopyrimidine derivative” (Kyowa Hakko Kirin Co., Ltd., priority 2010, dated 2014):

How the values were obtained:
[1] = test system: Dinitrofluorobenzene-Induced Ear Edema Reaction in Mouse; assay: Suppressive action on dinitrofluorobenzene-induced ear edema reaction in mouse (Test Example 2, 50% acetone/50% ethanol solvent); format: in vivo; settings: BALE/c mice (female); test compound 1% (w/v %) in 50% acetone/50% ethanol applied to front and back of auricle 1 hr before and 3 hr after induction; auricle thickness 24 hr after induction
Experimental: (§1) 5-Week old BALE/c mice (female, supplied by CHARLES RIVER LABORATORIES JAPAN, INC) were purchased and, after quarantine and habituation, those showing satisfactory body weight increase and free of abnormal appearance were used to start the test from 7 weeks of age. The animals were housed and bred in plastic cages (6 mice per cage) in a breeding chamber set at room temperature 19-25° C., humidity 30-70%, 12 hr illumination per day (7 a.m.-7 p.m.), with free access to a commercially available solid feed and water.
(§2) One day before the test, the abdomen was shaved, and a solution of dinitrofluorobenzene (manufactured by Nacalai Tesque) in acetone (manufactured by Wako Pure Chemical Industries, Ltd.) {concentration 0.5% [weight (w)/volume (v) %]} was applied to the shaved part of BALE/c mice by 100 μL for sensitization. On day 5 after sensitization, a dinitrofluorobenzene-acetone solution [concentration 0.2% (w/v %)] was applied to the front and the back of the auricle by 10 μL each (total 20 μL) to induce reaction. A test compound dissolved in 50% acetone/50% ethanol (w/v %) to the concentration of 1% (w/v %) was applied to the front and the back of the auricle 1 hr before and 3 hr after the induction of reaction each by 10 μL (total 20 μL). After the application, the applied part was air-dried by a dryer.
(§3) A group administered with the test compound by coating was taken as a test compound administration group, and a group administered with 50% acetone/50% ethanol (w/v %) (solvent) by coating instead of the test compound was taken as a solvent administration group. In addition, a group free of sensitization and induction of reaction and administered with 50% acetone/50% ethanol (w/v %) by coating instead of the test compound was taken as a normal group. The thickness of the auricle was measured immediately before induction of reaction and 24 hr after the induction with a dial thickness gauge (manufactured by OZAKI MFG. CO., LTD., G-1A), and the difference between them was taken as ear edema. The ear edema suppressive rate (%) was calculated according to the following formula.

[2] = test system: Dinitrofluorobenzene-Induced Ear Edema Reaction in Mouse; assay: Suppressive action on dinitrofluorobenzene-induced ear edema reaction in mouse (Test Example 1, acetone solvent); format: in vivo; settings: BALE/c mice (female); test compound 1% (w/v %) in acetone applied to front and back of auricle 1 hr before and 3 hr after induction; auricle thickness 24 hr after induction
Experimental: as §1, with “5-Week to 6-week” for “5-Week”
as §2, with “acetone” for “50% acetone/50% ethanol (w/v %)”
as §3, with “acetone” for “50% acetone/50% ethanol (w/v %)”

Row | Structure (SMILES) | ear edema suppressive rate (%) [1] [%] | ear edema suppressive rate (%) [2] [%]
1 | CCC(=O)NS(=O)(=O)c1cnn2c(Nc3cc(C)ccc3Cl)c(C(=O)N3CC4(C3)CN(c3ccc(F)cc3)C4)cnc12 [compound a-60, N-{7-(2-chloro-5-methylphenylamino)-6-[6-(4-fluorophenyl)-2,6-diazaspiro[3,3]heptane-2-carbonyl]pyrazolo[1,5-a]pyrimidin-3-ylsulfonyl}propionamide] | 5 | 
2 | CONS(=O)(=O)c1cnn2c(Nc3cc(Cl)ccc3Cl)c(C(=O)N3CCC(c4ccc(F)cc4)CC3)cnc12 [compound a-27, 7-(2,5-dichlorophenylamino)-6-[4-(4-fluorophenyl)piperidine-1-carbonyl]-N-methoxypyrazolo[1,5-a]pyrimidine-3-sulfonamide] | 47 | 
3 | CCNC(=O)NS(=O)(=O)c1cnn2c(Nc3ccc(F)cc3C)c(C(=O)N3CCC4(CC3)OCc3ccccc34)cnc12 [compound a-43, 7-(4-fluoro-2-methylphenylamino)-N-(ethylcarbamoyl)-6-[3H-spiro(isobenzofuran-1,4′-piperidine)-1-carbonyl]pyrazolo[1,5-a]pyrimidine-3-sulfonamide] |  | 40
4 | CCC(=O)NS(=O)(=O)c1cnn2c(Nc3cc(Cl)ccc3Cl)c(C(=O)N3CCC(c4ccc(F)cc4)CC3)cnc12 [compound a-22, N-{7-(2,5-dichlorophenylamino)-6-[4-(4-fluorophenyl)piperidine-1-carbonyl]pyrazolo[1,5-a]pyrimidin-3-ylsulfonyl}propionamide] | 16 | 
5 | O=C(NS(=O)(=O)c1cnn2c(Nc3ccccc3Cl)c(C(=O)N3CCC(c4ccccc4)CC3)cnc12)C1CC1 [compound a-6, N-[7-(2-chlorophenylamino)-6-(4-phenylpiperidine-1-carbonyl)pyrazolo[1,5-a]pyrimidin-3-ylsulfonyl]cyclopropanecarboxamide] |  | 30
6 | CCNC(=O)NS(=O)(=O)c1cnn2c(Nc3cc(C)ccc3Cl)c(C(=O)N3CCC(c4ccc(F)cc4)CC3)cnc12 [compound a-14, 7-(2-chloro-5-methylphenylamino)-N-(ethylcarbamoyl)-6-[4-(4-fluorophenyl)piperidine-1-carbonyl]pyrazolo[1,5-a]pyrimidine-3-sulfonamide] |  | 25
7 | CCC(=O)NS(=O)(=O)c1cnn2c(Nc3cc(C)c(F)cc3Cl)c(C(=O)N3CCC(c4ccc(F)cc4)CC3)cnc12 [compound a-40, N-{7-(2-chloro-4-fluoro-5-methylphenylamino)-6-[4-(4-fluorophenyl)piperidine-1-carbonyl]pyrazolo[1,5-a]pyrimidin-3-ylsulfonyl}propionamide] | 32 | 
